Data reported in PubChem BioAssay AID2060603 (Molecular Pharmacology Branch, DTP, NCI, 2025).

Test system: 422866-222-R5-J1-PDC spheroid viability
Experiment: Anticancer human tumor 422866-222-R5-J1-PDC patient-derived pancreatic adenocarcinoma cell line growth inhibition [CLK]
Settings: spheroids with HUVEC and MSC; for IC50: curve of first compound; for viability, T/C: stronger effect = lower value
Outline: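 Patient-derived tumor cells grown as complex spheroids with HUVEC endothelial cells and mesenchymal stem cells, treated with drug combinations. Concentrations descend in half-log steps from near clinical Cmax, or from 10 microM if Cmax unknown.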

[1] = second compound 0.0316 µM, first compound 0.0316 µM
[2] = second compound 0.0316 µM, first compound 0.1 µM
[3] = second compound 0.0316 µM, first compound 0.316 µM
[4] = second compound 0.0316 µM, first compound 1 µM
[5] = second compound 0.0316 µM, first compound 3.16 µM
[6] = second compound 0.0316 µM, first compound 10 µM
[7] = second compound 0.1 µM, first compound 0.0316 µM
[8] = second compound 0.1 µM, first compound 0.1 µM
[9] = second compound 0.1 µM, first compound 0.316 µM
[10] = second compound 0.1 µM, first compound 1 µM
[11] = second compound 0.1 µM, first compound 3.16 µM
[12] = second compound 0.1 µM, first compound 10 µM
[13] = second compound 0.316 µM, first compound 0.0316 µM
[14] = second compound 0.316 µM, first compound 0.1 µM
[15] = second compound 0.316 µM, first compound 0.316 µM
[16] = second compound 0.316 µM, first compound 1 µM
[17] = second compound 0.316 µM, first compound 3.16 µM
[18] = second compound 0.316 µM, first compound 10 µM
[19] = second compound 1 µM, first compound 0.0316 µM
[20] = second compound 1 µM, first compound 0.1 µM
[21] = second compound 1 µM, first compound 0.316 µM
[22] = second compound 1 µM, first compound 1 µM
[23] = second compound 1 µM, first compound 3.16 µM
[24] = second compound 1 µM, first compound 10 µM
[25] = second compound 3.16 µM, first compound 0.0316 µM
[26] = second compound 3.16 µM, first compound 0.1 µM
[27] = second compound 3.16 µM, first compound 0.316 µM
[28] = second compound 3.16 µM, first compound 1 µM
[29] = second compound 3.16 µM, first compound 3.16 µM
[30] = second compound 3.16 µM, first compound 10 µM
[31] = second compound 10 µM, first compound 0.0316 µM
[32] = second compound 10 µM, first compound 0.1 µM
[33] = second compound 10 µM, first compound 0.316 µM
[34] = second compound 10 µM, first compound 1 µM
[35] = second compound 10 µM, first compound 3.16 µM
[36] = second compound 10 µM, first compound 10 µM
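Note: spheroids exposed to agents for seven days before readout.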

## CC(Nc1ccc2c(c1)OCCn1cc(N3C(=O)OCC3C(F)F)nc1-2)C(N)=O (stereo not drawn) + CN1CCN(c2cc(C(=O)Nc3cc4cc(-c5cnn(C)c5)ccc4cn3)ccn2)CC1
Second compound 0.0316 µM
  IC50: 265 nM
Second compound 0.1 µM
  IC50: 389 nM
Second compound 0.316 µM
  IC50: 307 nM
Second compound 1 µM
  IC50: < 31.6 nM
Second compound 3.16 µM
  IC50: < 31.6 nM
Second compound 10 µM
  IC50: < 31.6 nM
[1]
  viability, T/C: 81.1%
[2]
  viability, T/C: 78.1%
[3]
  viability, T/C: 44.5%
[4]
  viability, T/C: 37.3%
[5]
  viability, T/C: 34%
[6]
  viability, T/C: 27%
[7]
  viability, T/C: 103%
[8]
  viability, T/C: 68.3%
[9]
  viability, T/C: 55.3%
[10]
  viability, T/C: 40.5%
[11]
  viability, T/C: 33.4%
[12]
  viability, T/C: 31.8%
[13]
  viability, T/C: 88.7%
[14]
  viability, T/C: 63.1%
[15]
  viability, T/C: 50%
[16]
  viability, T/C: 42.6%
[17]
  viability, T/C: 36.5%
[18]
  viability, T/C: 34.3%
[19]
  viability, T/C: 27.5%
[20]
  viability, T/C: 29.1%
[21]
  viability, T/C: 25.9%
[22]
  viability, T/C: 22.4%
[23]
  viability, T/C: 21.3%
[24]
  viability, T/C: 18.6%
[25]
  viability, T/C: 9.59%
[26]
  viability, T/C: 11%
[27]
  viability, T/C: 11.1%
[28]
  viability, T/C: 10.5%
[29]
  viability, T/C: 13.8%
[30]
  viability, T/C: 12.3%
[31]
  viability, T/C: 2.29%
[32]
  viability, T/C: 1.76%
[33]
  viability, T/C: 2.37%
[34]
  viability, T/C: 1.83%
[35]
  viability, T/C: 3.35%
[36]
  viability, T/C: 2.02%

## CC1COCCN1c1cc(C2(S(C)(=N)=O)CC2)nc(-c2ccnc3[nH]ccc23)n1 (stereo not drawn) + CN1CCN(c2cc(C(=O)Nc3cc4cc(-c5cnn(C)c5)ccc4cn3)ccn2)CC1
Second compound 0.0316 µM
  IC50: > 10000 nM
Second compound 0.1 µM
  IC50: > 10000 nM
Second compound 0.316 µM
  IC50: > 10000 nM
Second compound 1 µM
  IC50: < 31.6 nM
Second compound 3.16 µM
  IC50: < 31.6 nM
Second compound 10 µM
  IC50: < 31.6 nM
[1]
  viability, T/C: 112%
[2]
  viability, T/C: 104%
[3]
  viability, T/C: 93.6%
[4]
  viability, T/C: 89.3%
[5]
  viability, T/C: 56%
[6]
  viability, T/C: 55.6%
[7]
  viability, T/C: 115%
[8]
  viability, T/C: 95.7%
[9]
  viability, T/C: 113%
[10]
  viability, T/C: 74.3%
[11]
  viability, T/C: 60.2%
[12]
  viability, T/C: 61.2%
[13]
  viability, T/C: 95%
[14]
  viability, T/C: 85.8%
[15]
  viability, T/C: 79.9%
[16]
  viability, T/C: 73.2%
[17]
  viability, T/C: 61.2%
[18]
  viability, T/C: 56.2%
[19]
  viability, T/C: 30.9%
[20]
  viability, T/C: 26.6%
[21]
  viability, T/C: 27.7%
[22]
  viability, T/C: 21.6%
[23]
  viability, T/C: 23.8%
[24]
  viability, T/C: 17.5%
[25]
  viability, T/C: 10.7%
[26]
  viability, T/C: 10.4%
[27]
  viability, T/C: 11.6%
[28]
  viability, T/C: 10.4%
[29]
  viability, T/C: 10.6%
[30]
  viability, T/C: 10.2%
[31]
  viability, T/C: 2.45%
[32]
  viability, T/C: 2.21%
[33]
  viability, T/C: 1.54%
[34]
  viability, T/C: 2.27%
[35]
  viability, T/C: 4.47%
[36]
  viability, T/C: 2.46%

## CCN1CCN(Cc2ccc(Nc3ncc(F)c(-c4cc(F)c5nc(C)n(C(C)C)c5c4)n3)nc2)CC1 + CNC(=O)c1ccc(Nc2nc(OC3CCCC3)c3c(-c4ccc5nc(C)oc5c4)c[nH]c3n2)c(OC)c1
Second compound 0.0316 µM
  IC50: > 1000 nM
Second compound 0.1 µM
  IC50: > 1000 nM
Second compound 0.316 µM
  IC50: > 1000 nM
Second compound 1 µM
  IC50: > 1000 nM
Second compound 3.16 µM
  IC50: > 1000 nM
Second compound 10 µM
  IC50: > 1000 nM
Second compound 0.0316 µM, first compound 0.00316 µM
  viability, T/C: 96.2%
Second compound 0.0316 µM, first compound 0.01 µM
  viability, T/C: 111%
[1]
  viability, T/C: 79%
[2]
  viability, T/C: 73.5%
[3]
  viability, T/C: 80.9%
[4]
  viability, T/C: 96.2%
Second compound 0.1 µM, first compound 0.00316 µM
  viability, T/C: 81.5%
Second compound 0.1 µM, first compound 0.01 µM
  viability, T/C: 84.5%
[7]
  viability, T/C: 72.1%
[8]
  viability, T/C: 64.4%
[9]
  viability, T/C: 77.5%
[10]
  viability, T/C: 88.9%
Second compound 0.316 µM, first compound 0.00316 µM
  viability, T/C: 67.5%
Second compound 0.316 µM, first compound 0.01 µM
  viability, T/C: 58.9%
[13]
  viability, T/C: 60.5%
[14]
  viability, T/C: 59.3%
[15]
  viability, T/C: 65.3%
[16]
  viability, T/C: 71.9%
Second compound 1 µM, first compound 0.00316 µM
  viability, T/C: 72%
Second compound 1 µM, first compound 0.01 µM
  viability, T/C: 62.8%
[19]
  viability, T/C: 59.2%
[20]
  viability, T/C: 47.9%
[21]
  viability, T/C: 62.8%
[22]
  viability, T/C: 65.6%
Second compound 3.16 µM, first compound 0.00316 µM
  viability, T/C: 65.2%
Second compound 3.16 µM, first compound 0.01 µM
  viability, T/C: 51.5%
[25]
  viability, T/C: 56.2%
[26]
  viability, T/C: 56.2%
[27]
  viability, T/C: 66.5%
[28]
  viability, T/C: 67.9%
Second compound 10 µM, first compound 0.00316 µM
  viability, T/C: 54.6%
Second compound 10 µM, first compound 0.01 µM
  viability, T/C: 62.1%
[31]
  viability, T/C: 54.5%
[32]
  viability, T/C: 58.6%
[33]
  viability, T/C: 63.2%
[34]
  viability, T/C: 74.2%

## O=c1[nH]cc(F)c(=O)[nH]1 + CNC(=O)c1ccc(Nc2nc(OC3CCCC3)c3c(-c4ccc5nc(C)oc5c4)c[nH]c3n2)c(OC)c1
Second compound 0.0316 µM
  IC50: > 10000 nM
Second compound 0.1 µM
  IC50: > 10000 nM
Second compound 0.316 µM
  IC50: > 10000 nM
Second compound 1 µM
  IC50: 2180 nM
Second compound 3.16 µM
  IC50: > 10000 nM
Second compound 10 µM
  IC50: 3110 nM
[1]
  viability, T/C: 102%
[2]
  viability, T/C: 103%
[3]
  viability, T/C: 89.9%
[4]
  viability, T/C: 91.2%
[5]
  viability, T/C: 82.2%
[6]
  viability, T/C: 72.5%
[7]
  viability, T/C: 100%
[8]
  viability, T/C: 98.1%
[9]
  viability, T/C: 86%
[10]
  viability, T/C: 78.1%
[11]
  viability, T/C: 87%
[12]
  viability, T/C: 78.3%
[13]
  viability, T/C: 79.3%
[14]
  viability, T/C: 79.7%
[15]
  viability, T/C: 68.9%
[16]
  viability, T/C: 61.7%
[17]
  viability, T/C: 58.3%
[18]
  viability, T/C: 57.2%
[19]
  viability, T/C: 68.2%
[20]
  viability, T/C: 67.1%
[21]
  viability, T/C: 51.6%
[22]
  viability, T/C: 54.2%
[23]
  viability, T/C: 51%
[24]
  viability, T/C: 44.5%
[25]
  viability, T/C: 58.3%
[26]
  viability, T/C: 78.6%
[27]
  viability, T/C: 73.1%
[28]
  viability, T/C: 56.8%
[29]
  viability, T/C: 52.5%
[30]
  viability, T/C: 49.4%
[31]
  viability, T/C: 60.6%
[32]
  viability, T/C: 63.7%
[33]
  viability, T/C: 70%
[34]
  viability, T/C: 57.7%
[35]
  viability, T/C: 46.4%
[36]
  viability, T/C: 53.5%
